Reference: patent publication US20220273809A1, “AXL ANTIBODY-DRUG CONJUGATES FOR USE IN TREATING CANCER” (GENMAB A/S, priority 2019, published 2022)
Non-standard residues stand in square brackets, D forms with d. Residues, ends and D or L forms follow the SMILES beside them. *: point of attachment. Dolaproine = CO[C@@H]([C@@H]1CCCN1)[C@@H](C)C(=O)O; Dil = CC[C@H](C)[C@H](NC)[C@@H](CC(=O)O)OC; X1 = C[C@@H](N*)[C@@H](O)c1ccccc1; NMeV = CN[C@H](C(=O)O)C(C)C

Tests used:
LCLC-103H cells [1] = experiment: HMGB1 secretion in vitro (ELISA); assay type: cell-based, human; conditions: 48 hrs; ADC 2 μg/mL, MMAE 10 or 50 nM, paclitaxel 1 μM
Description: (§1) MDA-MB-231 or LCLC-103H cells were seeded in quadruplicate at 125,000 cells per well (MDA-MB-231) or 25,000 cells/well (LCLC-103H) in 24-well plates and grown 3-4 hrs at 37° C. Subsequently, IgG1-AXL-107-vcMMAE (2 μg/mL), free monomethyl auristatin E (MMAE; 10 or 50 nM), paclitaxel (1 μM), or isotype control ADC (IgG1-b12-vcMMAE; 2 μg/mL) were added to the wells and plates were incubated for 48 hrs at 37° C. After incubation cells were pelleted at 1000 rpm for 3 min at RT and supernatants were transferred to a new 96-wells plate. HMGB1 was measured in the supernatant using a HMGB1-specific ELISA kit (IBL, Cat.no ST51011) according to manufacturer's instructions.

MDA-MB-231 cells [2] = experiment: HMGB1 secretion in vitro (ELISA); assay type: cell-based, human; conditions: 48 hrs; ADC 2 μg/mL, MMAE 10 or 50 nM, paclitaxel 1 μM
Description: as §1

LCLC-103H cells [3] = experiment: Extracellular ATP release in vitro (CellTiterGlo); assay type: cell-based, human; conditions: 48 hr, 100% PBS; ADC 2 μg/mL, paclitaxel 1 μM, MMAE 10 or 50 nM
Description: (§2) LCLC-103H or MDA-MB-231 cells were seeded in quadruplicate at 25,000 cells per well for LCLC-103H cells or 125,000 cells per well for MDA-MB-231 cells in 24-well plates and grown 3 hours at 37° C. Subsequently, IgG1-AXL-107-vcMMAE (2 μg/mL), free monomethyl auristatin E (MMAE; 10 or 50 nM), paclitaxel (1 μM), or isotype control ADC (IgG1-b12-vcMMAE; 2 μg/mL) were added per well.
(§3) Plates were incubated for 48 hr at 37° C. and after incubation each well was washed with 200 μL PBS. After the final wash, PBS was replaced with 200 μL fresh 100% PBS or 70% PBS (hypotonic) for the indicated times, harvested and transferred to a 96-well plate, and then spun at 1000 rpm for 2 min at RT. Supernatants were transferred to a new 96-well (optiwhite) plate and ATP was measured using CellTiterGlo Luminescent Cell Viability Assay (Promega, Cat.no G7570) according to manufacturer's instructions. All steps were performed with ice-cold PBS and in the dark.

MDA-MB-231 cells [4] = experiment: Extracellular ATP release in vitro (CellTiterGlo); assay type: cell-based, human; conditions: 48 hr
Description: as §2, §3

LCLC-103H cells [5] = experiment: Calreticulin surface expression in vitro (flow cytometry); assay type: cell-based, human; conditions: 48 h; for cell surface expression of calreticulin (MFI) compared to untreated cells: ADCs 2 μg/mL, MMAE 10 or 50 nM, paclitaxel 1 μM; for percentage of calreticulin positive cells: compared to untreated or isotype control ADC
Description: (§4) LCLC-103H or MDA-MB-231 cells were grown to 70% to 80% confluence in 6-well plates, washed with serum-free medium and incubated with IgG1-AXL-107-vcMMAE (2 μg/mL), free monomethyl auristatin E (MMAE, SAFC, cat.no SG10; 10 or 50 nM), paclitaxel (1 μM), or isotype control ADC (IgG1-b12-vcMMAE; 2 μg/mL) in serum-free medium (RPMI1640, Lonza BE17-603E) for 48 hours (LCLC-103H) or 72 hours (MDA-MB-231). After incubation, supernatant and cells were collected and washed in PBS/0.1% BSA/0.02% azide (FACS buffer). Cells were then incubated with a phycoerythrin (PE)-conjugated mouse anti-human calreticulin antibody (Enzo, Cat no. ADI-SPA-601PE-D, lot. 10021835) for 30 min at 4° C. in the dark. A PE-conjugated mouse isotype control antibody (Enzo, cat no. ADI-SAB-600PE-D, lot. 08071817) was included as a control. After washing with FACS buffer, cells were analyzed with flow cytometry in the presence of DAPI (BD; cat no. 564907, lot. 8012653) or TO-PRO-3 (Thermo Fisher, cat no. T3605, lot. 1976612). Calreticulin expression was determined as PE positive cells and the percentage of calreticulin positive cells over isotype control was obtained on DAPI or TO-PRO-3 negative cells.

MDA-MB-231 cells [6] = experiment: as above; assay type: cell-based, human; conditions: 72 h; for cell surface expression of calreticulin (MFI) compared to untreated cells: ADCs 2 μg/mL, MMAE 10 or 50 nM, paclitaxel 1 μM; for percentage of calreticulin positive cells: compared to untreated or isotype control ADC
Description: as §4

[7] = test system: BLM human melanoma cell line-derived xenograft; experiment: BLM melanoma xenograft model with MART-1-specific human T cells; assay type: in vivo, mice; conditions: ADC single dose 4 mg/kg i.v. with control or MART-1 T cells; anti-PD1 5 mg/kg weekly i.p. with MART-1 T cells and control ADC
Description: (§5) The anti-tumor activity of IgG1-AXL-107-vcMMAE in combination with anti-PD1 (pembrolizumab) was evaluated in the BLM human melanoma cell line-derived xenograft model in mice, which systemically received human T-cells that were engineered to express a melanoma-specific T-cell receptor (TCR) against MART-1. Before inoculation of mice with BLM cells, the BLM cells were transduced with the antigen (MART-1) as well as the correct HLA haplotype (HLA-A2) in order for the MART-1-specific T cells to recognize the tumor cells.
Melanoma cell line BLM was cultured in DMEM (Gibco), with fetal bovine serum (Sigma), 100 U/mL penicillin (Gibco) and 0.1 mg/mL streptomycin (Gibco) under standard conditions, and was regularly confirmed to be mycoplasma-free by PCR. […]
(§6) 8-14 week old male and female NOD-SCID Gamma (NSGTM) mice (bred in-house at the Netherlands Cancer Institute (NKI), Amsterdam, The Netherlands) were subcutaneously injected in the right flank with 1×10^6 BLM tumor cells. Tumors were measured three times per week with a caliper, and when tumors were 100 mm3 (after 7 days) the animals were randomized over the following treatment groups: • 1. […]
(§7) Tumor volumes were measured 3 times per week by an independent animal technician in a blinded fashion. Tumor volume was calculated as follows: […]. […]

LXFA 526 = conditions: 4 mg/kg i.v.; Boshuizen et al, Nature Med 2018; cited from earlier work
[8] = test system: LCLC-103H NSCLC cell line-derived xenograft; experiment: LCLC-103H NSCLC xenograft model with MART-1-specific human T cells; assay type: in vivo, mice; conditions: ADC 1 mg/kg weekly i.v. with control T cells; anti-PD1 5 mg/kg weekly i.p. with MART-1 T cells and control ADC
Description: as §5, with “LCLC-103H NSCLC” for “BLM human melanoma”, “specific” for “melanoma-specific”, “LCLC-103H” for “BLM”
as §6, with “50” for “100”, “16 days), mice” for “7 days) the animals”, “1. Control T cells+Control ADC (n=7) • 2. MART-1 T cells+Control ADC (n=7) • 3. MART-1 T cells+Control ADC+anti-PD1 (n=7) • 4. Control T cells+IgG1-AXL-107-vcMMAE (n=11) • 5. MART-1 T cells+IgG1-AXL-107-vcMMAE (n=11) • 6. MART-1 T cells+IgG1-AXL-107-vcMMAE+anti-PD1 (n=11)” for “1.”
as §7

mouse Axl = mouse Axl (Mus musculus, UniProt Q00993); experiment: Binding to mouse Axl
Sequence of mouse Axl (Q00993 19-888): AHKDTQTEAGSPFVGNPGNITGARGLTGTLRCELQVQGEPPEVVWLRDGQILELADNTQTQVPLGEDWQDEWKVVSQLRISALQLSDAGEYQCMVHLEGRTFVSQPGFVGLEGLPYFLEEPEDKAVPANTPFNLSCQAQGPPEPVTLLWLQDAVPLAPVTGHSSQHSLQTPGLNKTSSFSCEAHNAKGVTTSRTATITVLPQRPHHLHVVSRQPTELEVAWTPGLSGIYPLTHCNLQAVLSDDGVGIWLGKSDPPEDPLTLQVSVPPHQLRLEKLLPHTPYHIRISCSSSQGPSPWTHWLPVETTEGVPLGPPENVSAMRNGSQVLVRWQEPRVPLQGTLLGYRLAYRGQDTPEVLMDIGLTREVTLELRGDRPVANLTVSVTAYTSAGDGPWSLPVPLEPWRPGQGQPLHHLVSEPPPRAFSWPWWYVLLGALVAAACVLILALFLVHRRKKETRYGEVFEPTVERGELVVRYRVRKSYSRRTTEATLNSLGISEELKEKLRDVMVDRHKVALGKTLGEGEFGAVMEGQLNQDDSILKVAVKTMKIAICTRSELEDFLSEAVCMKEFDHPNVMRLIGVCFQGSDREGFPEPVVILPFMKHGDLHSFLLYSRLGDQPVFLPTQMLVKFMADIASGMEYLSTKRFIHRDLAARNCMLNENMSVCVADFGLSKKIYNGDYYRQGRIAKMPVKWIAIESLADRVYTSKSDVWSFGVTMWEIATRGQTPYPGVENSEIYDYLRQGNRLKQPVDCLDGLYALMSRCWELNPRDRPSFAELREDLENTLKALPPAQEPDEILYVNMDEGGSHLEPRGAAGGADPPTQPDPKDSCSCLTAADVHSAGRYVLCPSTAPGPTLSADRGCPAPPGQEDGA

LXFA 677 = conditions: 4 mg/kg i.v.; Boshuizen et al, Nature Med 2018; cited from earlier work
[9] = hypotonic conditions (70% PBS), ADCs 2 μg/mL, MMAE 50 nM, paclitaxel 1 μM

Row | Compound | HMGB1 secretion compared to untreated cells (LCLC-103H cells [1]) | HMGB1 secretion compared to untreated cells (MDA-MB-231 cells [2]) | ATP release compared to untreated cells (LCLC-103H cells [3]) | ATP release compared to untreated cells (MDA-MB-231 cells [4]; 100% PBS, 10 nM MMAE) | ATP release compared to untreated cells (MDA-MB-231 cells [4]; hypotonic conditions (70% PBS), 10 nM MMAE) [fold] | ATP release compared to untreated cells (MDA-MB-231 cells [4]; [9]) | cell surface expression of calreticulin (MFI) compared to untreated cells (LCLC-103H cells [5]) | percentage of calreticulin positive cells (LCLC-103H cells [5]) | cell surface expression of calreticulin (MFI) compared to untreated cells (MDA-MB-231 cells [6]) | percentage of calreticulin positive cells (MDA-MB-231 cells [6]) | anti-tumor effect (tumor size) [7] | anti-tumor activity / tumor growth (LXFA 526) | anti-tumor effect (tumor size) [8] | binding to mouse Axl (mouse Axl) | anti-tumor activity / tumor growth (LXFA 677)
1 | CC[C@H](C)[C@@H]([C@@H](CC(=O)N1CCC[C@H]1[C@H](OC)[C@@H](C)C(=O)N[C@H](C)[C@@H](O)c1ccccc1)OC)N(C)C(=O)[C@@H](NC(=O)[C@@H](NC)C(C)C)C(C)C [MMAE, monomethyl auristatin E] (H-[NMeV]V[Dil][Dolaproine]-X1) | similar | around 4 fold | comparable levels | about 10 fold | ~26 | about 10 fold | comparable | increased | comparable | increased |  |  |  |  | 
2 | CC(=O)O[C@H]1C(=O)[C@@]2(C)[C@H]([C@H](OC(=O)c3ccccc3)[C@]3(O)C[C@H](OC(=O)[C@H](O)[C@@H](NC(=O)c4ccccc4)c4ccccc4)C(C)=C1C3(C)C)[C@]1(OC(C)=O)CO[C@@H]1C[C@@H]2O [paclitaxel] | about 11 fold | around 4 fold | comparable levels |  |  | ~15 fold | comparable | increased | comparable | increased |  |  |  |  | 
3 | IgG1-AXL-107-vcMMAE: anti-human AXL IgG1-kappa antibody conjugated, on an average of 4 cysteinyl, to MMAE via cleavable mc-val-cit-PABC linker | about 7.5 fold | about 1.6 fold | about 3 fold |  |  | ~7 fold | about 1.4 fold | increased | about 3.5 fold | increased | induced tumor regression | strong anti-tumor activity | some tumor growth inhibition | does not bind | strong anti-tumor activity
4 | anti-PD1: anti-PD1 antibody pembrolizumab (KEYTRUDA, MSD), obtained from SelleckChem |  |  |  |  |  |  |  |  |  |  | no enhanced tumor growth inhibition |  | no enhanced tumor growth inhibition |  | 
